Test results taken from patent EP4603105A1, “PHARMACEUTICAL COMPOSITION CONTAINING CYCLIC COMPOUND HAVING SELECTIVE KRAS INHIBITORY EFFECT AGAINST HRAS AND NRAS” (CHUGAI SEIYAKU KABUSHIKI KAISHA, priority 2022, dated 2024).
Where a SMILES comes first, the peptide text is derived from it. Bridges are numbered along the chain shown (N, C = ends). [ ]: non-standard residue; d: D form. The star is where a group is joined. hPhe(3,5-F2-4-CF3) = N[C@@H](CCc1cc(F)c(C(F)(F)F)c(F)c1)C(=O)O; hPhe(3-Cl-4-CF3) = N[C@@H](CCc1ccc(C(F)(F)F)c(Cl)c1)C(=O)O; NPrPhe(4-CF3) = CCCN[C@@H](Cc1ccc(C(F)(F)F)cc1)C(=O)O; NMeGly(cPent) = CN[C@H](C(=O)O)C1CCCC1; NMeD = CN[C@@H](CC(=O)O)C(=O)O; NMeL = CN[C@@H](CC(C)C)C(=O)O; αMeL = CC(C)C[C@](C)(N)C(=O)O; Azetidin(1-yl) = C1CN(*)C1; Morpholide = C1CN(*)CCO1; Ac5c = NC1(C(=O)O)CCCC1; Aze = O=C(O)[C@@H]1CCN1; Abu = CC[C@H](N)C(=O)O; Sar = CNCC(=O)O

Assays:
[1] = test system: human lung cancer strain NCI-H441; format: cell-based
Outline: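 Signal came from […] measured per well once the reagent was added. Beforehand, cells were cultured at 37°C and 5% carbon dioxide on a compound series serially diluted in dimethyl sulfoxide.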

HRAS wild-type protein = HRAS wild-type protein (Homo sapiens, UniProt P01112); experiment: Binding to HRAS by surface plasmon resonance (SPR), KD and KD ratio to KRAS
Chain of HRAS wild-type protein (P01112 whole entry): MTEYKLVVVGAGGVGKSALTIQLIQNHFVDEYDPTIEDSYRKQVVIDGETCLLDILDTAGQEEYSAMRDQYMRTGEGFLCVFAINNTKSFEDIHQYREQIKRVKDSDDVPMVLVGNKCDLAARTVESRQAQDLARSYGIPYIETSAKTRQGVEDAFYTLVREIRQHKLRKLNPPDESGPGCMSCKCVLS
Outline: (§1)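 Each cycle, GDP-bound biotin-Avi RAS was captured (~100–300 RU), compound concentrations were injected low to high for 75 s each at 100 µL/min, then the chip was regenerated. Buffer: HBS pH 7.4, 10 mM MgCl2, 10 µM GDP, 1 mM DTT, 4% DMSO; 30°C. KD from a 1:1 binding model.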

[2] = target: GDP-bound NRAS wild-type protein (Homo sapiens, UniProt P01111); experiment: Binding to NRAS by surface plasmon resonance (SPR), KD and KD ratio to KRAS
Chain of GDP-bound NRAS wild-type protein (P01111 whole entry): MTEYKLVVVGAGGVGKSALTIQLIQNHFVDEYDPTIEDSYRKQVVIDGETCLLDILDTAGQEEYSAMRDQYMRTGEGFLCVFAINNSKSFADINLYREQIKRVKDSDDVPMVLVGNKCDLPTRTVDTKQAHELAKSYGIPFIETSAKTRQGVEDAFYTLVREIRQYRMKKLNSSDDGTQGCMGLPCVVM
Outline: as §1

[3] = ratio of KD value for HRAS wild-type protein to KD value for KRAS (SPR)
[4] = ratio of KD value for GDP-bound NRAS wild-type protein to KD value for KRAS (SPR)
[5] = ratio of KD for HRAS wild-type protein to KD for KRAS
[6] = ratio of KD for GDP-bound NRAS wild-type protein to KD for KRAS
[7] = ratio of the KD value with respect to HRAS wild-type protein to the KD value with respect to KRAS
[8] = ratio of the KD value with respect to GDP-bound NRAS wild-type protein to the KD value with respect to KRAS

SMILES | IC50 [1] | HRAS /KRAS (HRAS wild-type protein; [3]) | NRAS /KRAS [2, 4] | HRAS /KRAS (HRAS wild-type protein; [5]) | NRAS /KRAS [2, 6] | HRAS /KRAS (HRAS wild-type protein; [7]) | NRAS /KRAS [2, 8]
CCCN(C)C(=O)[C@@H]1CC(=O)N(C)[C@@H](C)C(=O)N[C@@H]([C@@H](C)CC)C(=O)N(C)CC(=O)N(C)[C@H]2C/C=C\CCN(C2=O)[C@@H](Cc2ccc(C(F)(F)F)cc2)C(=O)N(C)CC(=O)N[C@@H](CCc2cc(F)c(C(F)(F)F)c(F)c2)C(=O)N2C[C@H](OCC)C[C@H]2C(=O)NC2(CCC2)C(=O)N(C)[C@@H](C2CCCC2)C(=O)N1C [PP1666] | 0.0081 µM | A (a compound having 10 or more and less than 20 is denoted as A) | A (a compound having 10 or more and less than 20 is denoted as A) |  |  |  | 
CC[C@H](C)[C@@H]1NC(=O)[C@H](CC2CC2)N(C)C(=O)C[C@@H](C(=O)N(C)C)N(C)C(=O)[C@H](C2CCCC2)N(C)C(=O)C2(CCCC2)NC(=O)[C@@H]2C[C@H](C)CN2C(=O)[C@H](CCc2cc(F)c(C(F)(F)F)c(F)c2)NC(=O)CN(C)C(=O)[C@H](Cc2ccc(C(F)(F)F)cc2)N2CC/C=C\C[C@@H](C2=O)N(C)C(=O)CN(C)C1=O [PP1511] | 0.0137 µM | A (a compound having 10 or more and less than 20 is denoted as A) | AA (a compound having 20 or more is denoted as AA) |  |  |  | 
CCO[C@@H]1C[C@H]2C(=O)NC3(CCCC3)C(=O)N(C)[C@@H](C3CCCC3)C(=O)N(C)[C@H](C(=O)N3CCOCC3)CC(=O)N(C)[C@@H](COC)C(=O)N[C@@H]([C@@H](C)CC)C(=O)N(C)CC(=O)N(C)[C@H]3CCCCCN(C3=O)[C@@H](Cc3ccc(C(F)(F)F)cc3)C(=O)N(C)CC(=O)N[C@@H](CCc3cc(F)c(C(F)(F)F)c(F)c3)C(=O)N2C1 [PP0841] | 0.113 µM |  |  | B (a compound having 3 or more and less than 10 is denoted as B) | B (a compound having 3 or more and less than 10 is denoted as B) |  | 
CCCN1C(=O)CN(C)C(=O)CN(C)C(=O)[C@H]([C@@H](C)CC)NC(=O)[C@H](CC(C)C)N(C)C(=O)C[C@@H](C(=O)N2CCC2)N(C)C(=O)[C@H](C2CCCC2)N(C)C(=O)C2(CCCC2)NC(=O)[C@@H]2CCCN2C(=O)[C@H](CCc2ccc(C(F)(F)F)c(Cl)c2)NC(=O)CN(C)C(=O)[C@@H]1Cc1ccc(C(F)(F)F)cc1 [PP0172] ([NMeL]I[Sar][Sar][NPrPhe(4-CF3)][Sar][hPhe(3-Cl-4-CF3)]P[Ac5c][NMeGly(cPent)][NMeD]-{Azetidin(1-yl)}; lactam N-11) | 0.0038 µM |  |  | C (A compound having a KD ratio of 0.1 or more and less than 3 is denoted as C) | B (a compound having 3 or more and less than 10 is denoted as B) |  | 
CC[C@H](C)[C@@H]1NC(=O)[C@H](CC2CC2)N(C)C(=O)C[C@@H](C(=O)N2CCCC2)N(C)C(=O)[C@H](C2CCCC2)N(C)C(=O)C2(CCCC2)NC(=O)[C@@H]2C[C@@H](F)CN2C(=O)[C@H](CCc2cc(F)c(C(F)(F)F)c(F)c2)NC(=O)CN(C)C(=O)[C@H](Cc2ccc(C(F)(F)F)cc2)N2CC/C=C\C[C@@H](C2=O)N(C)C(=O)CN(C)C1=O [PP1503] | 0.0038 µM | A (a compound having 10 or more and less than 20 is denoted as A) | A (a compound having 10 or more and less than 20 is denoted as A) |  |  |  | 
CC[C@H](C)[C@@H]1NC(=O)[C@H](COC)N(C)C(=O)C[C@@H](C(=O)N2CCOCC2)N(C)C(=O)[C@H](C2CCCC2)N(C)C(=O)C2(CCCC2)NC(=O)[C@@H]2CC(F)(F)CN2C(=O)[C@H](CCc2cc(F)c(C(F)(F)F)c(F)c2)NC(=O)CN(C)C(=O)[C@H](Cc2ccc(C(F)(F)F)cc2)N2CCCCC[C@@H](C2=O)N(C)C(=O)CN(C)C1=O [PP0846] | 0.0222 µM |  |  | B (a compound having 3 or more and less than 10 is denoted as B) | B (a compound having 3 or more and less than 10 is denoted as B) |  | 
CC[C@H](C)[C@@H]1NC(=O)[C@H](CC2CC2)N(C)C(=O)C[C@@H](C(=O)N(C)CC)N(C)C(=O)[C@H](C2CCCC2)N(C)C(=O)C2(CCC2)NC(=O)[C@@H]2CC(F)(F)CN2C(=O)[C@H](CCc2cc(F)c(C(F)(F)F)c(F)c2)NC(=O)CN(C)C(=O)[C@H](Cc2ccc(C(F)(F)F)cc2)N2CC/C=C\C[C@@H](C2=O)N(C)C(=O)CN(C)C1=O [PP1538] | 0.0075 µM | B (a compound having 3 or more and less than 10 is denoted as B) | A (a compound having 10 or more and less than 20 is denoted as A) |  |  |  | 
CCCN1C(=O)CN(C)C(=O)CN(C)C(=O)[C@H]([C@@H](C)CC)NC(=O)[C@@H]2COCCCC[C@@](C)(NC(=O)[C@@H]3C[C@@H](OCC)CN3C(=O)[C@H](CCc3cc(F)c(C(F)(F)F)c(F)c3)NC(=O)CN(C)C(=O)[C@@H]1Cc1ccc(C(F)(F)F)cc1)C(=O)N(C)[C@@H](C1CCCC1)C(=O)N(C)[C@H](C(=O)N1CCOCC1)CC(=O)N2C [PP0899] | 0.923 µM |  |  | B (a compound having 3 or more and less than 10 is denoted as B) | A (a compound having 10 or more and less than 20 is denoted as A) |  | 
CCO[C@@H]1C[C@H]2C(=O)NC3(CCC3)C(=O)N(C)[C@@H](C3CCCC3)C(=O)N(C)[C@H](C(=O)N3CCOCC3)CC(=O)N(C)[C@@H](COC)C(=O)N[C@@H]([C@@H](C)CC)C(=O)N(C)CC(=O)N(C)[C@H]3CCCCCN(C3=O)[C@@H](Cc3ccc(C(F)(F)F)cc3)C(=O)N(C)CC(=O)N[C@@H](CCc3ccc(C(F)(F)F)c(Cl)c3)C(=O)N2C1 [PP0849] | 0.0357 µM |  |  | B (a compound having 3 or more and less than 10 is denoted as B) | B (a compound having 3 or more and less than 10 is denoted as B) |  | 
CCCN1C(=O)CN(C)C(=O)CN(C)C(=O)[C@H](CC)NC(=O)[C@H](CC(C)C)N(C)C(=O)C[C@@H](C(=O)N2CCOCC2)N(C)C(=O)[C@H](C2CCCC2)N(C)C(=O)C2(CCCC2)NC(=O)[C@@H]2CCCN2C(=O)[C@H](CCc2ccc(C(F)(F)F)c(Cl)c2)NC(=O)CN(C)C(=O)[C@@H]1Cc1ccc(C(F)(F)F)cc1 [PP0248] ([NMeL][Abu][Sar][Sar][NPrPhe(4-CF3)][Sar][hPhe(3-Cl-4-CF3)]P[Ac5c][NMeGly(cPent)][NMeD]-Morpholide; lactam N-11) | 0.084 µM |  |  | B (a compound having 3 or more and less than 10 is denoted as B) | B (a compound having 3 or more and less than 10 is denoted as B) |  | 
CCO[C@@H]1C[C@H]2C(=O)NC3(CCC3)C(=O)N(C)[C@@H](C3CCCC3)C(=O)N(C)[C@H](C(=O)N3CCOCC3)CC(=O)N(C)[C@@H](CC(C)C)C(=O)N[C@@H](C3CC(F)(F)C3)C(=O)N(C)CC(=O)N(C)[C@H]3CCCCN(C3=O)[C@@H](Cc3ccc(C(F)(F)F)cc3)C(=O)N(C)CC(=O)N[C@@H](CCc3cc(F)c(C(F)(F)F)c(F)c3)C(=O)N2C1 [PP0807] | 0.0167 µM |  |  | B (a compound having 3 or more and less than 10 is denoted as B) | B (a compound having 3 or more and less than 10 is denoted as B) |  | 
CCCN(C)C(=O)[C@@H]1CC(=O)N(C)[C@@H](CC(F)F)C(=O)N[C@@H]([C@@H](C)CC)C(=O)N(C)CC(=O)N(C)[C@H]2C/C=C\CCN(C2=O)[C@@H](Cc2ccc(C(F)(F)F)cc2)C(=O)N(C)CC(=O)N[C@@H](CCc2ccc(C(F)(F)F)c(OC)c2)C(=O)N2C[C@H](OCC)C[C@H]2C(=O)NC2(CCC2)C(=O)N(C)[C@@H](C2CCCC2)C(=O)N1C [PP2013] | 0.0077 µM |  |  |  |  | B (a compound having 3 or more and less than 10 is denoted as B) | A (a compound having 10 or more and less than 20 is denoted as A)
CCCN1C(=O)[C@@H]2CCN2C(=O)CN(C)C(=O)[C@H]([C@@H](C)CC)NC(=O)[C@H](CC(C)C)N(C)C(=O)C[C@@H](C(=O)N2CCOCC2)N(C)C(=O)[C@H](C2CCCC2)N(C)C(=O)[C@](C)(CC(C)C)NC(=O)[C@@H]2CCCN2C(=O)[C@H](CCc2cc(F)c(C(F)(F)F)c(F)c2)NC(=O)CN(C)C(=O)[C@@H]1Cc1ccc(C(F)(F)F)cc1 [PP0795] ([NMeL]I[Sar][Aze][NPrPhe(4-CF3)][Sar][hPhe(3,5-F2-4-CF3)]P[αMeL][NMeGly(cPent)][NMeD]-Morpholide; lactam N-11) | 0.356 µM |  |  | B (a compound having 3 or more and less than 10 is denoted as B) | C (A compound having a KD ratio of 0.1 or more and less than 3 is denoted as C) |  | 
CCCN(C)C(=O)[C@@H]1CC(=O)N(C)[C@@H](C(C)C)C(=O)N[C@@H]([C@@H](C)CC)C(=O)N(C)CC(=O)N(C)[C@H]2C/C=C\CCN(C2=O)[C@@H](Cc2ccc(C(F)(F)F)cc2)C(=O)N(C)CC(=O)N[C@@H](CCc2ccc(C(F)(F)F)c(OC)c2)C(=O)N2C[C@H](OCC)C[C@H]2C(=O)NC2(CCC2)C(=O)N(C)[C@@H](C2CCCC2)C(=O)N1C [PP2020] | 0.0083 µM |  |  |  |  | A (a compound having 10 or more and less than 20 is denoted as A) | A (a compound having 10 or more and less than 20 is denoted as A)
CCO[C@@H]1C[C@H]2C(=O)NC3(CC(C)(C)C3)C(=O)N(C)[C@@H](C3CCCC3)C(=O)N(C)[C@H](C(=O)N(C)CC)CC(=O)N(C)[C@@H](COC)C(=O)N[C@@H]([C@@H](C)CC)C(=O)N(C)CC(=O)N(C)[C@H]3C/C=C\CCN(C3=O)[C@@H](Cc3ccc(C(F)(F)F)cc3)C(=O)N(C)CC(=O)N[C@@H](CCc3ccc(C(F)(F)F)c(Cl)c3)C(=O)N2C1 [PP2836] | 0.0051 µM |  |  | A (a compound having 10 or more and less than 20 is denoted as A) | A (a compound having 10 or more and less than 20 is denoted as A) |  | 
